From publication PMC10339456, “Exploring the 5-Substituted 2-Aminobenzothiazole-Based DNA Gyrase B Inhibitors Active against ESKAPE Pathogens” (ACS Omega, 2023)
Read-outs that look alike come from different tables or passages of the source.

Key:
[1] = test system: P. aeruginosa ATCC27853; design: method as in PMID 33524686; conditions: cited from earlier work
[2] = molecular target: T1, E. coli Topo IV (Escherichia coli, UniProt P20083); design: method as in PMID 33524686; conditions: relaxation; compound previously prepared and tested; cited from earlier work
T1 construct: purchased Inspiralis Limited, Norwich, UK

[3] = test system: S. aureus ATCC29213; design: method as in PMID 33524686; conditions: cited from earlier work
[4] = test system: E. coli ATCC25922; design: method as in PMID 33524686; conditions: cited from earlier work
[5] = test system: K. pneumoniae ATCC10031; design: method as in PMID 33524686; conditions: cited from earlier work
[6] = molecular target: T2, E. coli gyrase (Escherichia coli, UniProt P0AES6); design: method as in PMID 33524686; conditions: supercoiling; compound previously prepared and tested; cited from earlier work
T2 construct: purchased Inspiralis Limited, Norwich, UK

[7] = test system: Gram-negative strains; design: method as in PMID 33524686; conditions: cited from earlier work
[8] = test system: A. baumannii ATCC17978; design: method as in PMID 33524686; conditions: cited from earlier work
[9] = test system: S. aureus (MRSA) ATCC43300; design: method as in PMID 33524686; conditions: cited from earlier work
[10] = test system: Gram-negative strains; test: MIC, summary in text over Gram-negative strains; assay type: cell-based; conditions: for MIC: read-out: MIC against Gram-negative strains (no activity); for MIC range against Gram-negative strains: E. coli, A. baumannii, P. aeruginosa, and K. pneumoniae
Method: (§1) To evaluate selectivity against a related human target, compounds D and E were tested for their inhibitory activity on human topoisomerase IIα.
(§2) Antimicrobial assays (MICs) were performed by a standard serial broth microdilution method. For details on antimicrobial assays, see the Supporting Information.

[11] = test system: Enterobacter cloacae ATCC13047; test: MIC, broth microdilution (CLSI); assay type: cell-based
Method: as §2

[12] = test system: E. coli ATCC25922; test: MIC, broth microdilution (CLSI); assay type: cell-based; conditions: Escherichia coli
Method: as §2

[13] = test system: S. aureus ATCC29213; test: MIC, broth microdilution (CLSI); assay type: cell-based; conditions: Staphylococcus aureus
Method: as §2

[14] = test system: S. aureus (MRSA) ATCC43300; test: MIC, broth microdilution (CLSI); assay type: cell-based; conditions: Staphylococcus aureus
Method: as §2

[15] = test system: A. baumannii ATCC17978; test: MIC, broth microdilution (CLSI); assay type: cell-based; conditions: Acinetobacter baumannii
Method: as §2

[16] = test system: K. pneumoniae ATCC10031; test: MIC, broth microdilution (CLSI); assay type: cell-based; conditions: Klebsiella pneumoniae
Method: as §2

[17] = test system: P. aeruginosa ATCC27853; test: MIC, broth microdilution (CLSI); assay type: cell-based; conditions: Pseudomonas aeruginosa
Method: as §2

[18] = molecular target: T2, E. coli gyrase; test: DNA gyrase supercoiling assay (Inspiralis kit); assay type: biochemical; conditions: mean ± SD of three independent experiments
Method: (§3) Compounds B, C, D, and E were evaluated against DNA gyrase from E. coli supercoiling and against Topo IV in relaxation assay. The results are presented in Table 1 and Figure S5 as concentrations of compounds that inhibit the enzyme activity by 50% (IC50 values). […] Compounds B, C, D, and E were tested for antibacterial activity against Gram-positive and Gram-negative bacteria, including ESKAPE pathogens.
(§4) Commercially available assay kits (Inspiralis Limited, Norwich, UK) were used for the determination of IC50 values for test compounds for inhibition of DNA gyrase supercoiling and Topo IV and TopoIIα relaxation. Assays were performed according to previously reported procedures.[25] For details on enzyme assays, see the Supporting Information.

[19] = molecular target: T1, E. coli Topo IV; test: Topo IV relaxation assay (Inspiralis kit); assay type: biochemical
Method: as §3, §4

[20] = molecular target: T3, human topoisomerase IIα (Homo sapiens, UniProt P11388); test: Human topoisomerase IIα relaxation assay (selectivity); assay type: biochemical; conditions: read-out: enzyme residual activity human topoisomerase IIα
T3 construct: purchased Inspiralis Limited, Norwich, UK
Method: as §1, §4

[21] = test system: E. faecium ATCC700221; test: MIC, broth microdilution (CLSI); assay type: cell-based; conditions: Enterococcus faecium
Method: as §2

[22] = test system: S. aureus (VISA) ATCC700699; test: MIC, broth microdilution (CLSI); assay type: cell-based; conditions: Staphylococcus aureus
Method: as §2

[23] = test system: Gram-positives S. aureus, MRSA, VISA, and E. faecium; test: MIC, summary over Gram-positive strains; assay type: cell-based; conditions: most strains
Method: as §1, §2

[24] = mean ± SD of three independent experiments, read-out: IC50 E. coli Topo IV

T1 sequence (P20083 whole entry): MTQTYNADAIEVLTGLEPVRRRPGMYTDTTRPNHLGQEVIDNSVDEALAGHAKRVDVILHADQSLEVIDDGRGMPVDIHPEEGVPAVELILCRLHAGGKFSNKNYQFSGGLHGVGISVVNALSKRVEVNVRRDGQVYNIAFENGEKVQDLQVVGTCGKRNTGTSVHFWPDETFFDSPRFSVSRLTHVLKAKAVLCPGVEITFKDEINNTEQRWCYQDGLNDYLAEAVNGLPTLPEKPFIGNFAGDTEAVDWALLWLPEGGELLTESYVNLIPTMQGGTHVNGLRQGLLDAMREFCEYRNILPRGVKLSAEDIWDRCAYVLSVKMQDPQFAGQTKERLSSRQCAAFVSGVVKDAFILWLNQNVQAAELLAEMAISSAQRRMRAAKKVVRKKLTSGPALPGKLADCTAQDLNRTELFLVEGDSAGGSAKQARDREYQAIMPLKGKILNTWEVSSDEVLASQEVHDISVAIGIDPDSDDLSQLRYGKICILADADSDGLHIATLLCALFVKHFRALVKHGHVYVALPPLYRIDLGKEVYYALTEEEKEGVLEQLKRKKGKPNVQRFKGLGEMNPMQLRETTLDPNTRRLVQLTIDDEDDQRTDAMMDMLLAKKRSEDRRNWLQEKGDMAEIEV
T1 sequence (P0AFI2 whole entry, further chain): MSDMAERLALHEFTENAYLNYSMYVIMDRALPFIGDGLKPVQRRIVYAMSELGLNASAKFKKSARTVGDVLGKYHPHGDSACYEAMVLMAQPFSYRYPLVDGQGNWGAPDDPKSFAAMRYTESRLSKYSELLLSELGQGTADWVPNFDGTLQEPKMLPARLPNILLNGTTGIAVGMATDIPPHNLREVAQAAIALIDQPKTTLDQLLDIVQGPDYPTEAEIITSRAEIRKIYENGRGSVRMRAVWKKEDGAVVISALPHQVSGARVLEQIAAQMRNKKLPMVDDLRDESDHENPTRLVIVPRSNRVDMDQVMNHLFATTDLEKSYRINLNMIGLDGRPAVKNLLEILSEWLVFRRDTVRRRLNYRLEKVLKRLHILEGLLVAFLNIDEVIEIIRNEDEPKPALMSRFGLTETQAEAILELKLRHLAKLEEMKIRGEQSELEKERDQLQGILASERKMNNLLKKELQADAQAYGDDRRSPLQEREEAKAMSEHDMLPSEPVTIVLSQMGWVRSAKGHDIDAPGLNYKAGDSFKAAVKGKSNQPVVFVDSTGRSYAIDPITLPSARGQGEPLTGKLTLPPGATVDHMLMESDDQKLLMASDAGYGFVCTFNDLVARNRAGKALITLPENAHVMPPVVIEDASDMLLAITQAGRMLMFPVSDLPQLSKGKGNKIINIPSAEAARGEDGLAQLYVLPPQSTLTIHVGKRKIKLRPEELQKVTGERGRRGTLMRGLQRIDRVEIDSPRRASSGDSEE
T3 sequence (P11388 whole entry): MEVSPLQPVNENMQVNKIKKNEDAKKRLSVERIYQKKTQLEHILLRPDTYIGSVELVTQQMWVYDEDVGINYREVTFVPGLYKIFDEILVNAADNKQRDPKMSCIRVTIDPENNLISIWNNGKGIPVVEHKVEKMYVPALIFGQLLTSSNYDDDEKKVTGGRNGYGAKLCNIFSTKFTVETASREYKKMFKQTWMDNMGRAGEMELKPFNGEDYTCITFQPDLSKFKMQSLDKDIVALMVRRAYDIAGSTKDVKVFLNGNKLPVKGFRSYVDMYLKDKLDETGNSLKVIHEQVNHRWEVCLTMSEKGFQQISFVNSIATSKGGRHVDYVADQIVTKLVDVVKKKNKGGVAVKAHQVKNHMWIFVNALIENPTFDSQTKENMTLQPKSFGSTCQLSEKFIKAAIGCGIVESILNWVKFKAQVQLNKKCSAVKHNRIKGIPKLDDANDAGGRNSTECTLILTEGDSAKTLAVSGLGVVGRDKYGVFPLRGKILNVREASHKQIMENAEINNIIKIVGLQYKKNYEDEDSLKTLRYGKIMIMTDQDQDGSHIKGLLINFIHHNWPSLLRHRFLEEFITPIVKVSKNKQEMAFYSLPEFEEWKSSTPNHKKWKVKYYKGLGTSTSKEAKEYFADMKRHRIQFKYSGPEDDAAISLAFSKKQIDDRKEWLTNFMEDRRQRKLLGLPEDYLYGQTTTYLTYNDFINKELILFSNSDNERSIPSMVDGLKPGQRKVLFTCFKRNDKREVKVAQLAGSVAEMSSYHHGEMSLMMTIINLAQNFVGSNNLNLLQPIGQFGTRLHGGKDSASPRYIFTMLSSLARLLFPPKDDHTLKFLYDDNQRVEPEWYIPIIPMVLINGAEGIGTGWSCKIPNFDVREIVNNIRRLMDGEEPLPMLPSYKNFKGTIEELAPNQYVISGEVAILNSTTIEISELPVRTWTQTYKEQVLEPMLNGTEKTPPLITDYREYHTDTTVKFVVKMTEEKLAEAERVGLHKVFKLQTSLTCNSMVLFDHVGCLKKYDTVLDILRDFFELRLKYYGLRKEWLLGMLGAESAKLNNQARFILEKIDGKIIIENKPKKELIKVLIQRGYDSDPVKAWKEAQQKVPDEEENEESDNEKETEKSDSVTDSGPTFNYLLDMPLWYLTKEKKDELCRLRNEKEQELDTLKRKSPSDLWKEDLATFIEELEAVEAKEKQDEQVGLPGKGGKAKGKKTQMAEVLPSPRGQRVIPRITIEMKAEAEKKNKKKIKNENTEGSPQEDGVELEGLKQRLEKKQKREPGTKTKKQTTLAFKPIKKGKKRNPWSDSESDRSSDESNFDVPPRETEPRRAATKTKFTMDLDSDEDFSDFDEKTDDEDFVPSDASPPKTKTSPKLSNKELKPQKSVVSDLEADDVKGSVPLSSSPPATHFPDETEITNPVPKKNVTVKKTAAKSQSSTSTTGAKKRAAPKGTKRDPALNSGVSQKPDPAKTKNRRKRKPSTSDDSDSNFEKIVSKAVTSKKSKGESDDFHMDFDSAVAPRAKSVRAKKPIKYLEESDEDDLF

Compound	MIC [10] [µg/mL]	MIC ([11]; first value of cell) [µg/mL]	MIC ([11]; second value of cell) [µM]	MIC ([12]; first value of cell) [µg/mL]	MIC ([12]; second value of cell) [µM]	MIC ([13]; first value of cell) [µg/mL]	MIC ([13]; second value of cell) [µM]	MIC ([14]; first value of cell) [µg/mL]	MIC ([14]; second value of cell) [µM]	MIC ([15]; first value of cell) [µg/mL]	MIC ([15]; second value of cell) [µM]	MIC ([16]; first value of cell) [µg/mL]	MIC ([16]; second value of cell) [µM]	MIC ([17]; first value of cell) [µg/mL]	MIC ([17]; second value of cell) [µM]	IC50 [18] [nM]	IC50 [19, 24] [nM]	remaining activity at 100 µM [20] [%]	MIC range against Gram-negative strains [10] [µg/mL]	MIC ([21]; first value of cell) [µg/mL]	further results
Cc1[nH]c(C(=O)Nc2nc3cc(O)c(C(=O)O)cc3s2)c(Cl)c1Cl [Compound A]	–	–	–	–	–	–	–	–	–	–	–	–	–	–	–	–	–	–	–	–	MIC P. aeruginosa ATCC27853 ([1]; first value of cell): > 64 µg/mL; MIC P. aeruginosa ATCC27853 ([1]; second value of cell): > 166 µM; IC50 [2]: 95 nM; MIC S. aureus ATCC29213 ([3]; first value of cell): 16 µg/mL; MIC S. aureus ATCC29213 ([3]; second value of cell): 41 µM; MIC E. coli ATCC25922 ([4]; first value of cell): > 64 µg/mL; MIC E. coli ATCC25922 ([4]; second value of cell): > 166 µM; MIC K. pneumoniae ATCC10031 ([5]; first value of cell): 8 µg/mL; MIC K. pneumoniae ATCC10031 ([5]; second value of cell): 21 µM; IC50 [6]: < 10 nM; MIC against Gram-negative bacterial strains (inactive) [7]: > 64 µg/mL; MIC A. baumannii ATCC17978 ([8]; first value of cell): > 64 µg/mL; MIC A. baumannii ATCC17978 ([8]; second value of cell): > 166 µM; MIC S. aureus (MRSA) ATCC43300 ([9]; first value of cell): 4 µg/mL; MIC S. aureus (MRSA) ATCC43300 ([9]; second value of cell): 10 µM
Cc1[nH]c(C(=O)Nc2nc3c(C)c(F)c(C(=O)O)cc3s2)c(Cl)c1Cl [Compound B]	> 64	> 64	> 159	> 64	> 159	0.5	1.2	0.25	0.6	> 64	> 159	> 64	> 159	> 64	> 159	40	2000 ± 900	–	–	–	–
CC(=O)N(Cc1ccccc1)c1cc2nc(NC(=O)c3[nH]c(C)c(Cl)c3Cl)sc2cc1C(=O)O [Compound C]	> 64	> 64	> 124	> 64	> 124	8	16	8	16	> 64	> 124	64	124	> 64	> 124	71	–	–	–	–	IC50 ([19]; E. coli, read-out: IC50 Topo IV): 4000 nM
Cc1[nH]c(C(=O)Nc2nc3cc(NCc4ccccc4)c(C(=O)O)cc3s2)c(Cl)c1Cl [Compound D]	–	> 64	> 135	16	34	< 0.03	< 0.07	< 0.03	< 0.07	8	17	4	8.4	8	17	< 10	293 ± 155	100	4 to 16	< 0.13	MIC ([21]; second value of cell): < 0.26 µM; MIC ([22]; first value of cell): < 0.03 µg/mL; MIC ([22]; second value of cell): < 0.07 µM; MIC [23]: < 0.03 µg/mL
COCCCNc1cc2nc(NC(=O)c3[nH]c(C)c(Cl)c3Cl)sc2cc1C(=O)O [Compound E]	–	> 64	> 140	8	18	< 0.03	< 0.07	< 0.03	< 0.07	4	9	4	9	16	35	< 10	210	55	4 to 16	< 0.06	MIC ([21]; second value of cell): < 0.14 µM; MIC ([22]; first value of cell): < 0.03 µg/mL; MIC ([22]; second value of cell): < 0.07 µM; MIC [23]: < 0.03 µg/mL
